In paper PMC7370100, “In Vitro Assessment of the Genotoxic Hazard of Novel Hydroxamic Acid- and Benzamide-Type Histone Deacetylase Inhibitors (HDACi)” (International Journal of Molecular Sciences, 2020):

Legend:
V79 cells [1] = test: Phospho-ATM (pATM) foci formation; type: cell-based, hamster; conditions: 6 to 24 h, V79, in words
Source text: Figure 4 Cell cycle-related formation of DNA damage by hydroxamic acid- and benzamide-type HDACi. […] (B) For positive control, ionizing radiation (IR) was used. Shown are representative pictures of γH2AX, 53BP1, and pATM stained cells. […] Data shown are the mean ± SD from three independent experiments (n = 3); *, p ≤ 0.05; **, p ≤ 0.01 as compared to the untreated control, which was set to 1.0 (Student´s t-test).

[2] = design: method as in PMID 15897550; conditions: humans; read-out: maximal blood serum concentration (Cmax); cited from earlier work
V79 cells [3] = test: Nuclear 53BP1 foci formation; type: cell-based, hamster; conditions: 6 to 24 h, V79, in words
Protocol: The frequency of nuclear foci formed by S139 phosphorylated H2AX (γH2AX foci), which is a surrogate marker of DNA damage, especially DNA double-strand breaks (DSBs), was assayed by immunocytochemistry-based analysis. […] The appearance of nuclear 53BP1 foci, which is another marker of DSBs, was also determined by immunocytochemistry. Cells were fixed with 4% formaldehyde in phosphate-buffered saline (PBS) (MERCK, Darmstadt, Germany) (15 min, RT) followed by incubation with ice-cold methanol (≥20 min, −20 °C). After blocking (1 h, RT, blocking solution: 5% BSA (MERCK, Darmstadt, Germany) in PBS/0.3% Triton X-100 (Sigma, Steinheim, Germany)), incubation with γH2AX antibody and 53BP1 antibody was performed (1:500, overnight, 4 °C). After incubation with the secondary fluorescence-labeled antibody (1:500, 1 h, RT, in the dark), cells were mounted in Vectashield (Vector Laboratories (Burlingame, CA, USA)) containing DAPI. The number of nuclear γH2AX and 53BP1 foci was scored (Olympus BX43 fluorescence microscope). Only nuclei with distinct foci were evaluated and γH2AX pan-stained nuclei were excluded from the foci analyses. Data are shown as the mean ± SEM of three independent experiments with ≥50 nuclei analyzed per experimental condition.

O=C(CCCCCCC(=O)Nc1ccccc1)NO [Vorinostat, vorinostat, reference compound]
formation of phospho-ATM (pATM) foci (V79 cells [1]): did not cause the formation of phospho-ATM (pATM) foci
Cmax [2]: ~1000 nM
formation of nuclear 53BP1 foci (V79 cells [3]): failed to cause the formation of nuclear 53BP1 foci
